How the values were obtained:
large (Lg) crabgrass [1] = test: Test A preemergence; format: in vivo, Digitaria sanguinalis; settings: for Crabgrass, Large plant response rating (0 to 100 scale): 125 g ai/ha
Summary of the method: (§1)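 Compounds in non-phytotoxic solvent with surfactant applied as soil spray preemergence, or postemergence to plants 2-10 cm at one- to two-leaf stage, in loam/sand. After approximately 10 days in greenhouse, injury rated visually versus untreated controls, 0 (no effect) to 100 (complete control).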

blackgrass [2] = test: Test C preemergence; format: in vivo, Alopecurus myosuroides
Summary of the method: (§2)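 Seeds are planted in blended loam soil and sand and treated preemergence, while seedlings in a peat moss/vermiculite medium receive postemergence sprays at 2 to 18 cm height. All plants stay in the greenhouse for 13 to 15 days before visual comparison with controls on a 0–100 scale.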

large (Lg) crabgrass [3] = test: Test C preemergence; format: in vivo, Digitaria sanguinalis
Summary of the method: as §2

barnyardgrass [4] = test: Test B flooded paddy test; format: in vivo, Echinochloa crus-galli; settings: Flood, 250 g ai/ha, 0 to 100 scale where 0 is no effect and 100 is complete control
Summary of the method: (§3)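 Seedlings are raised to two leaves, flooded to a depth of 3 cm and dosed by adding the compound to the floodwater. Water level is kept constant, and plants are scored visually versus controls 13–15 days later (0 = no effect, 100 = complete control).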

morningglory [5] = test: Test A postemergence; format: in vivo, Ipomoea spp.; settings: 0 to 100 scale where 0 is no effect and 100 is complete control; for Morningglory plant response rating: 125 g ai/ha
Summary of the method: as §1

large (Lg) crabgrass [6] = test: Test A postemergence; format: in vivo, Digitaria sanguinalis; settings: 0 to 100 scale where 0 is no effect and 100 is complete control; for Crabgrass, Large plant response rating: 125 g ai/ha
Summary of the method: as §1

johnsongrass = test: Test C postemergence; format: in vivo, Sorghum halepense
Summary of the method: as §2

blackgrass [7] = test: Test C postemergence; format: in vivo, Alopecurus myosuroides
Summary of the method: as §2

wheat = test: Test A postemergence; format: in vivo, Triticum aestivum; settings: 0 to 100 scale where 0 is no effect and 100 is complete control
Summary of the method: as §1

wheat, winter = test: Test C preemergence; format: in vivo, Triticum aestivum
Summary of the method: as §2

wild oat = test: Test C postemergence; format: in vivo, Avena fatua; settings: for Oat, Wild plant response rating: 31 g ai/ha
Summary of the method: as §2

Italian ryegrass = test: Test C preemergence; format: in vivo, Lolium multiflorum
Summary of the method: as §2

morningglory [8] = test: Test A preemergence; format: in vivo, Ipomoea spp.; settings: for Morningglory plant response rating (0 to 100 scale): 125 g ai/ha
Summary of the method: as §1

corn = test: Test A preemergence; format: in vivo, Zea mays; settings: for Corn plant response rating (0 to 100 scale): 125 g ai/ha
Summary of the method: as §1

barnyardgrass [9] = test: Test A preemergence; format: in vivo, Echinochloa crus-galli; settings: for Barnyardgrass plant response rating (0 to 100 scale, 0 is no effect, 100 is complete control): 125 g ai/ha
Summary of the method: as §1

Heteranthera limosa = test: Test B flooded paddy test; format: in vivo; settings: Flood, 250 g ai/ha, 0 to 100 scale where 0 is no effect and 100 is complete control
Summary of the method: as §3

[10] = postemergence, visual rating, scale 0 to 100 (0 no effect, 100 complete control), 13 to 15 days
[11] = 500 g ai/ha, 0 to 100 scale where 0 is no effect and 100 is complete control
[12] = 125 g ai/ha, preemergence, scale 0 (no effect) to 100 (complete control)
[13] = 250 g ai/ha, preemergence, scale 0 (no effect) to 100 (complete control)
[14] = Preemergence, 62 g ai/ha, scale 0 to 100, 0 no effect, 100 complete control
[15] = 31 g ai/ha, postemergence, visual rating, scale 0 to 100 (0 no effect, 100 complete control), 13 to 15 days
[16] = 125 g ai/ha, postemergence, visual rating, scale 0 to 100 (0 no effect, 100 complete control)
[17] = Postemergence, 62 g ai/ha, scale 0 to 100 (0 no effect, 100 complete control), 13 to 15 days

## FC(F)c1cccc(Oc2ncc(Cl)cn2)c1-n1cc(Br)cn1 [Compound 194, 2-[2-(4-bromo-1H-pyrazol-1-yl)-3-(difluoromethyl)phenoxy]-5-chloropyrimidine]
Large (Lg) crabgrass [1]
  Crabgrass, Large plant response rating (0 to 100 scale): 100
Large (Lg) crabgrass [1]; Digitaria sanguinalis, pre-emergence, 240 h, 500 g ai/ha, 0 to 100 scale where 0 is no effect and 100 is complete control, read-out: Crabgrass, Large plant response rating
  pest or weed control at 500 g/ha: 100%
Blackgrass [2]; Alopecurus myosuroides, pre-emergence, 125 g ai/ha, preemergence, scale 0 (no effect) to 100 (complete control), read-out: Blackgrass plant response rating
  pest or weed control at 125 g/ha: 90%
Blackgrass [2]; Alopecurus myosuroides, pre-emergence, 250 g ai/ha, preemergence, scale 0 (no effect) to 100 (complete control), read-out: Blackgrass plant response rating
  pest or weed control at 250 g/ha: 90%
Blackgrass [2]; Alopecurus myosuroides, pre-emergence, Preemergence, 62 g ai/ha, scale 0 to 100, 0 no effect, 100 complete control, read-out: Plant response rating, Blackgrass
  pest or weed control at 62 g/ha: 50%
Large (Lg) crabgrass [3]; Digitaria sanguinalis, pre-emergence, 125 g ai/ha, preemergence, scale 0 (no effect) to 100 (complete control), read-out: Crabgrass, Large plant response rating
  pest or weed control at 125 g/ha: 100%
Large (Lg) crabgrass [3]; Digitaria sanguinalis, pre-emergence, 250 g ai/ha, preemergence, scale 0 (no effect) to 100 (complete control), read-out: Crabgrass, Large plant response rating
  pest or weed control at 250 g/ha: 100%
Large (Lg) crabgrass [3]; Digitaria sanguinalis, pre-emergence, Preemergence, 62 g ai/ha, scale 0 to 100, 0 no effect, 100 complete control, read-out: Plant response rating, Crabgrass, Large
  pest or weed control at 62 g/ha: 98%
Barnyardgrass [4]; Echinochloa crus-galli, read-out: Plant response rating, Barnyardgrass
  pest or weed control at 250 g/ha: 0%
Morningglory [5]
  Morningglory plant response rating: 90
Morningglory [5]; Ipomoea, post-emergence, 240 h, 500 g ai/ha, read-out: Plant response rating, Morningglory
  pest or weed control at 500 g/ha: 100%
Large (Lg) crabgrass [6]
  Crabgrass, Large plant response rating: 90
Large (Lg) crabgrass [6]; Digitaria sanguinalis, post-emergence, 240 h, 500 g ai/ha, read-out: Plant response rating, Crabgrass, Large
  pest or weed control at 500 g/ha: 100%
johnsongrass; Sorghum halepense, post-emergence, 125 g ai/ha, postemergence, visual rating, scale 0 to 100 (0 no effect, 100 complete control), read-out: Plant response rating, Johnsongrass
  pest or weed control at 125 g/ha: 25%
johnsongrass; Sorghum halepense, post-emergence, 250 g ai/ha, postemergence, read-out: Plant response rating (0 to 100), Johnsongrass
  pest or weed control at 250 g/ha: 35%
johnsongrass; Sorghum halepense, post-emergence, Postemergence, 62 g ai/ha, scale 0 to 100 (0 no effect, 100 complete control), 13 to 15 days, read-out: Plant response rating, Johnsongrass
  pest or weed control at 62 g/ha: 5%
Blackgrass [7]; Alopecurus myosuroides, post-emergence, 31 g ai/ha, postemergence, visual rating, scale 0 to 100 (0 no effect, 100 complete control), 13 to 15 days, read-out: Blackgrass plant response rating
  pest or weed control at 31 g/ha: 15%
Blackgrass [7]; Alopecurus myosuroides, post-emergence, 125 g ai/ha, postemergence, visual rating, scale 0 to 100 (0 no effect, 100 complete control), read-out: Plant response rating, Blackgrass
  pest or weed control at 125 g/ha: 30%
Blackgrass [7]; Alopecurus myosuroides, post-emergence, 250 g ai/ha, postemergence, read-out: Plant response rating (0 to 100), Blackgrass
  pest or weed control at 250 g/ha: 35%
Blackgrass [7]; Alopecurus myosuroides, post-emergence, Postemergence, 62 g ai/ha, scale 0 to 100 (0 no effect, 100 complete control), 13 to 15 days, read-out: Plant response rating, Blackgrass
  pest or weed control at 62 g/ha: 20%
wheat; Triticum aestivum, post-emergence, 240 h, 125 g ai/ha, read-out: Wheat plant response rating
  plant injury at 125 g/ha: 30%
wheat; Triticum aestivum, post-emergence, 240 h, 500 g ai/ha, read-out: Plant response rating, Wheat
  plant injury at 500 g/ha: 60%
wheat, winter; Triticum aestivum, pre-emergence, 125 g ai/ha, preemergence, scale 0 (no effect) to 100 (complete control), read-out: Wheat plant response rating
  plant injury at 125 g/ha: 0%
wheat, winter; Triticum aestivum, pre-emergence, 250 g ai/ha, preemergence, scale 0 (no effect) to 100 (complete control), read-out: Wheat plant response rating
  plant injury at 250 g/ha: 35%
wheat, winter; Triticum aestivum, pre-emergence, Preemergence, 62 g ai/ha, scale 0 to 100, 0 no effect, 100 complete control, read-out: Plant response rating, Wheat
  plant injury at 62 g/ha: 0%
Wild oat; [10]
  Oat, Wild plant response rating: 5
Wild oat; Avena fatua, post-emergence, 125 g ai/ha, postemergence, visual rating, scale 0 to 100 (0 no effect, 100 complete control), read-out: Plant response rating, Oat, Wild
  pest or weed control at 125 g/ha: 40%
Wild oat; Avena fatua, post-emergence, 250 g ai/ha, postemergence, read-out: Plant response rating (0 to 100), Oat, Wild
  pest or weed control at 250 g/ha: 45%
Wild oat; Avena fatua, post-emergence, Postemergence, 62 g ai/ha, scale 0 to 100 (0 no effect, 100 complete control), 13 to 15 days, read-out: Plant response rating, Oat, Wild
  pest or weed control at 62 g/ha: 15%
Italian ryegrass; Lolium multiflorum, pre-emergence, 125 g ai/ha, preemergence, scale 0 (no effect) to 100 (complete control), read-out: Ryegrass, Italian plant response rating
  pest or weed control at 125 g/ha: 70%
Italian ryegrass; Lolium multiflorum, pre-emergence, 250 g ai/ha, preemergence, scale 0 (no effect) to 100 (complete control), read-out: Ryegrass, Italian plant response rating
  pest or weed control at 250 g/ha: 90%
Italian ryegrass; Lolium multiflorum, pre-emergence, Preemergence, 62 g ai/ha, scale 0 to 100, 0 no effect, 100 complete control, read-out: Plant response rating, Ryegrass, Italian
  pest or weed control at 62 g/ha: 20%
Morningglory [8]
  Morningglory plant response rating (0 to 100 scale): 60
Morningglory [8]; Ipomoea, pre-emergence, 240 h, 500 g ai/ha, 0 to 100 scale where 0 is no effect and 100 is complete control, read-out: Morningglory plant response rating
  pest or weed control at 500 g/ha: 100%
corn
  Corn plant response rating (0 to 100 scale): 30
corn; Zea mays, pre-emergence, 240 h, 500 g ai/ha, 0 to 100 scale where 0 is no effect and 100 is complete control, read-out: Corn plant response rating
  plant injury at 500 g/ha: 50%
Barnyardgrass [9]
  Barnyardgrass plant response rating (0 to 100 scale, 0 is no effect, 100 is complete control): 80
Barnyardgrass [9]; Echinochloa crus-galli, pre-emergence, 240 h, 500 g ai/ha, 0 to 100 scale where 0 is no effect and 100 is complete control, read-out: Barnyardgrass plant response rating
  pest or weed control at 500 g/ha: 100%
Heteranthera limosa; Heteranthera limosa, read-out: Plant response rating, Ducksalad
  pest or weed control at 250 g/ha: 98%

## N#Cc1cccc(Oc2ncc(Cl)cn2)c1-n1cc(I)cn1 [Compound 204]
Large (Lg) crabgrass [1]
  Crabgrass, Large plant response rating (0 to 100 scale): 100
Large (Lg) crabgrass [1]; [11]
  Crabgrass, Large plant response rating: 100
Blackgrass [2]; [12]
  Blackgrass plant response rating: 90
Blackgrass [2]; [13]
  Blackgrass plant response rating: 95
Blackgrass [2]; [14]
  Plant response rating, Blackgrass: 80
Large (Lg) crabgrass [3]; [12]
  Crabgrass, Large plant response rating: 100
Large (Lg) crabgrass [3]; [13]
  Crabgrass, Large plant response rating: 100
Large (Lg) crabgrass [3]; [14]
  Plant response rating, Crabgrass, Large: 100
Barnyardgrass [4]
  Plant response rating, Barnyardgrass: 20
Morningglory [5]
  Morningglory plant response rating: 80
Morningglory [5]; 500 g ai/ha
  Plant response rating, Morningglory: 100
Large (Lg) crabgrass [6]
  Crabgrass, Large plant response rating: 90
Large (Lg) crabgrass [6]; 500 g ai/ha
  Plant response rating, Crabgrass, Large: 100
johnsongrass; [15]
  Johnsongrass plant response rating: 5
johnsongrass; [16]
  Plant response rating, Johnsongrass: 10
johnsongrass; 250 g ai/ha, postemergence
  Plant response rating (0 to 100), Johnsongrass: 30
johnsongrass; [17]
  Plant response rating, Johnsongrass: 5
Blackgrass [7]; [15]
  Blackgrass plant response rating: 5
Blackgrass [7]; [16]
  Plant response rating, Blackgrass: 10
Blackgrass [7]; 250 g ai/ha, postemergence
  Plant response rating (0 to 100), Blackgrass: 25
Blackgrass [7]; [17]
  Plant response rating, Blackgrass: 5
wheat; 125 g ai/ha
  Wheat plant response rating: 40
wheat; 500 g ai/ha
  Plant response rating, Wheat: 70
wheat, winter; [12]
  Wheat plant response rating: 30
wheat, winter; [13]
  Wheat plant response rating: 60
wheat, winter; [14]
  Plant response rating, Wheat: 5
Wild oat; [10]
  Oat, Wild plant response rating: 20
Wild oat; [16]
  Plant response rating, Oat, Wild: 15
Wild oat; 250 g ai/ha, postemergence
  Plant response rating (0 to 100), Oat, Wild: 15
Wild oat; [17]
  Plant response rating, Oat, Wild: 15
Italian ryegrass; [12]
  Ryegrass, Italian plant response rating: 75
Italian ryegrass; [13]
  Ryegrass, Italian plant response rating: 95
Italian ryegrass; [14]
  Plant response rating, Ryegrass, Italian: 35
Morningglory [8]
  Morningglory plant response rating (0 to 100 scale): 90
Morningglory [8]; [11]
  Morningglory plant response rating: 90
corn
  Corn plant response rating (0 to 100 scale): 0
corn; [11]
  Corn plant response rating: 30
Barnyardgrass [9]
  Barnyardgrass plant response rating (0 to 100 scale, 0 is no effect, 100 is complete control): 70
Barnyardgrass [9]; [11]
  Barnyardgrass plant response rating: 100
Heteranthera limosa
  Plant response rating, Ducksalad: 70
